Measurements reported in US12667574B2, “Paraxanthine-based bioactive composition and method of use thereof” (PX ING, LLC, priority 2021, dated 2026).

What was measured:
[1] = test system: male Swiss Albino Wistar rats; test: Walter Morris Maze test (Example 3); format: in vivo; details: for escape latency: oral 14 days
Method: Distilled water was provided ad libitum. […] Ltd (Bangalore, India). […] The last dose on day 14 was given 1 hour prior to testing. The Walter Morris Maze test consisted of a circular pool in a room with geometric shapes on the wall serving as spatial cues. The pool, which is 70 cm in diameter and painted with black color, filled with 13 cm depth of 25±1° C. water. A platform (6 cm diameter) was placed into one quadrant of the pool and submerged 1 cm below the water surface. For the training, all rats were trained to locate the submerged platform in constant location. The training day consisted of four trials. […] The rat was allowed to remain on the platform for 15 seconds before being dried off and later was transferred to a holding cage.

[2] = test system: brain derived neuro factor, BDNF; test: BDNF level, neuroplasticity (Example 3); format: in vivo, rats; details: for BDNF: oral 14 days
Method: (§1) Distilled water was provided ad libitum. […] Ltd (Bangalore, India).
(§2) 0.5% Carboxy Methyl Cellulose sodium was used as vehicle and the test item formulations were prepared daily. […] The last dose on day 14 was given 1 hour prior to testing.

acetylcholine (Ach) [3] = test: Acetylcholine concentration (Example 3); format: in vivo, rats; details: for acetylcholine (Ach) concentration: oral 14 days
Method: as §1, §2

dopamine (dopa) [4] = test: Dopamine concentration (Example 3); format: in vivo, rats; details: for dopamine (dopa) concentration: oral 14 days
Method: as §1, §2

glutathione (GSH) [5] = test: Glutathione level (Example 3); format: in vivo, rats; details: for glutathione (GSH) level: oral 14 days
Method: as §1, §2

male Swiss Albino mice [6] = test: Treadmill endurance test (first Example 4, L-Theanine); format: in vivo
Method: as §1
(§3) The following HED were used in this study: 50 mg paraxanthine, (ENFINITY™ Ingenious Ingredients, L.P Lewisville, TX, USA; mouse dose: 10.275 mg/kg bw/day); 25 mg L-Theanine (mouse dose: 5.137 mg/kg bw), and 50 mg paraxanthine plus 25 mg L-Theanine. 0.5% Carboxy Methyl Cellulose sodium was used as vehicle and the test item formulations were prepared daily.
During the treatment period, exercise training was completed using a motorized treadmill (Exer 3/6, Columbus Instruments international, OH, USA) at a moderate intensity of 20 cm/sec as maximal running speed, an incline of ten degrees and a shock intensity of 0.2 mA, for ten minutes. The speed of the treadmill was manually adjusted by increasing the belt speed by 5 cm/sec every two minutes throughout the total duration of ten minutes. All animals were adapted to this procedure daily 60 minutes after dosing for five days in a week during the treatment period. 1.3. Treadmill Endurance Test
Muscle endurance was accomplished on a motorized treadmill at a low to moderate intensity of 5-50 cm/sec as maximal running speed, an incline of ten degrees and a shock intensity of 0.2 mA, with the belt speed being increased by 5 cm/sec every two minutes until it reaches 50 cm/sec. Animals were subjected to the treadmill test until exhaustion.

[7] = test system: male Swiss Albino Wistar rats; test: Walter Morris Maze test (second Example 4, L-Theanine); format: in vivo; details: for escape latency: oral 14 days
Method: as §1
as §3, with “(ENFINITY™,” for “(ENFINITY™”, “rat” for “mouse”, “5.141” for “10.275”, “(rat” for “(mouse”, “2.570” for “5.137”, “daily. […] The last dose on day 14 was given 1 hour prior to testing.” for “daily.”
The Walter Morris Maze test consisted of a circular pool in a room with geometric shapes on the wall serving as spatial cues. The pool, which is 70 cm in diameter and painted with black color, filled with 13 cm depth of 25±1° C. water. A platform (6 cm diameter) was placed into one quadrant of the pool and submerged 1 cm below the water surface. For the training, all rats were trained to locate the submerged platform in a constant location. The training day consisted of four trials. During training, a rat started at one of four starting points and allowed to swim until it located the platform or until 60 seconds had elapsed. The rat was allowed to remain on the platform for 15 seconds before being dried off and later was transferred to a holding cage. […] The animals were continuously trained 4 times at 4 starting points continued daily for 4 days, the main trial was conducted on the 15th & 16th day and the latency of escaping onto the platform was recorded.

[8] = test system: brain derived neuro factor, BDNF; test: BDNF level, neuroplasticity (second Example 4); format: in vivo, rats; details: for BDNF: oral 14 days
Method: as §1
as §3, with “(ENFINITY™,” for “(ENFINITY™”, “rat” for “mouse”, “5.141” for “10.275”, “(rat” for “(mouse”, “2.570” for “5.137”, “daily. […] The last dose on day 14 was given 1 hour prior to testing.” for “daily.”

acetylcholine (Ach) [9] = test: Acetylcholine concentration (second Example 4); format: in vivo, rats; details: for acetylcholine (Ach) concentration: oral 14 days
Method: as §1
as §3, with “(ENFINITY™,” for “(ENFINITY™”, “rat” for “mouse”, “5.141” for “10.275”, “(rat” for “(mouse”, “2.570” for “5.137”, “daily. […] The last dose on day 14 was given 1 hour prior to testing.” for “daily.”

dopamine (dopa) [10] = test: Dopamine concentration (second Example 4); format: in vivo, rats; details: for dopamine (dopa) concentration: oral 14 days
Method: as §1
as §3, with “(ENFINITY™,” for “(ENFINITY™”, “rat” for “mouse”, “5.141” for “10.275”, “(rat” for “(mouse”, “2.570” for “5.137”, “daily. […] The last dose on day 14 was given 1 hour prior to testing.” for “daily.”

glutathione (GSH) [11] = test: Glutathione level (second Example 4); format: in vivo, rats; details: for glutathione (GSH) level: oral 14 days
Method: as §1
as §3, with “(ENFINITY™,” for “(ENFINITY™”, “rat” for “mouse”, “5.141” for “10.275”, “(rat” for “(mouse”, “2.570” for “5.137”, “daily. […] The last dose on day 14 was given 1 hour prior to testing.” for “daily.”

male Swiss Albino mice [12] = test: Treadmill endurance test (Example 2)
Method: Thirty-six 8-week-old male Swiss Albino mice were housed in an animal room at a constant temperature (22±3° C.) and humidity (30%-70%) under a 12:12 h light-dark cycle with standard laboratory diet (Purina 5L79, Rat and Mouse 18% protein; PMI Nutrition International, Brentwood, MO, USA). Distilled water was provided ad libitum. All animal experiments were reviewed and approved by the Institutional Animal Ethical Committee (IAEC) of Radiant Research Services Pvt. Ltd (Bangalore, India). All research was conducted in accordance with the guidelines of the committee for the purpose of control and supervision of experiments on animals.
The dose administered to the mice was calculated using US Food and Drug Administration for human equivalence doses (HED), assuming a human weight of 60 kg. […] 0.5% Carboxy Methyl Cellulose sodium was used as vehicle and the test item formulations were prepared daily. Dosing was conducted via oral gavage using disposable polypropylene syringes with sterilized stainless steel gavage tubes. The food intake and water consumption were monitored daily, and BW was recorded weekly. The last dose on day 28 was given 1 hour prior to testing.
On 28th day of each respective treatment, all animals were subjected to a muscle endurance test. Muscle endurance was accomplished on a motorized treadmill at a low to moderate intensity of 5-50 cm/sec as maximal running speed, an incline of ten degrees and a shock intensity of 0.2 mA, with the belt speed being increased by 5 cm/sec every two minutes until it reaches 50 cm/sec. Animals were subjected to the treadmill test until exhaustion. Distance traveled (cm) was measured as a marker of exercise performance, energy, and endurance.

## Cn1c(=O)[nH]c2ncn(C)c2c1=O [paraxanthine, 1,7-Dimethyl-3H-purine-2,6-dione]
[1]; old rats (16-month-old)
  escape latency: 39.00 ± 1.90 s
[1]; old rats
  decrease of escape latency compared to alpha-GPC: 2.1%
  decrease of escape latency compared to control: 33.7%
  decrease of escape latency compared to theobromine: 7.9%
  decrease of escape latency compared to theophylline: 11.0%
[1]; young rats (8-week-old)
  escape latency: 32.50 ± 1.38 s
[1]; young rats
  decrease of escape latency compared to alpha-GPC: 6.7%
  decrease of escape latency compared to control: 40%
  decrease of escape latency compared to theobromine: 13.7%
  decrease of escape latency compared to theophylline: 14.5%
[2]; old rats
  BDNF: 842.68 ± 6.26 pg/mL
  increase in BDNF compared to alpha-GPC: 1.5%
  increase in BDNF compared to placebo: 18.1%
  increase in BDNF compared to theobromine: 3.1%
  increase in BDNF compared to theophylline: 3.8%
[2]; young rats
  BDNF: 917.05 ± 5.21 pg/mL
  increase in BDNF compared to alpha-GPC: 4.0%
  increase in BDNF compared to placebo: 22.7%
  increase in BDNF compared to theobromine: 5.4%
  increase in BDNF compared to theophylline: 4.9%
Acetylcholine (Ach) [3]; old rats
  acetylcholine (Ach) concentration: 59.78±2.61 U/mL
  increase in Ach compared to alpha-GPC: 5.1%
  increase in Ach compared to placebo: 23.2%
  increase in Ach compared to theobromine: 5.5%
  increase in Ach compared to theophylline: 8.0%
Acetylcholine (Ach) [3]; young rats
  acetylcholine (Ach) concentration: 66.83±2.38 U/mL
  increase in Ach compared to alpha-GPC: 1.4%
  increase in Ach compared to placebo: 23.9%
  increase in Ach compared to theobromine: 4.0%
  increase in Ach compared to theophylline: 4.6%
Dopamine (dopa) [4]; old rats
  dopamine (dopa) concentration: 516.85 ± 4.43 ng/L
  increase in dopa compared to alpha-GPC: 2.1%
  increase in dopa compared to placebo: 32.7%
  increase in dopa compared to theobromine: 2.8%
  increase in dopa compared to theophylline: 4.2%
Dopamine (dopa) [4]; young rats
  dopamine (dopa) concentration: 580.22 ± 5.33 ng/L
  increase in dopa compared to alpha-GPC: 3.0%
  increase in dopa compared to placebo: 23.7%
  increase in dopa compared to theobromine: 5.0%
  increase in dopa compared to theophylline: 6.7%
Glutathione (GSH) [5]; old rats
  glutathione (GSH) level: 25.57 ± 0.80 µg/mL
  increase in GSH compared to alpha-GPC: 3.4%
  increase in GSH compared to placebo: 62.1%
  increase in GSH compared to theobromine: 4.2%
  increase in GSH compared to theophylline: 5.5%
Glutathione (GSH) [5]; young rats
  glutathione (GSH) level: 32.57 ± 0.84 µg/mL
  increase in GSH compared to alpha-GPC: 2.6%
  increase in GSH compared to placebo: 64.1%
  increase in GSH compared to theobromine: 3.9%
  increase in GSH compared to theophylline: 9.4%
Male Swiss Albino mice [6]; compared to L-Theanine alone
  increase of distance travelled compared to L-Theanine: 4.9%
Male Swiss Albino mice [6]; compared to control (placebo)
  increase of distance travelled compared to control: 81%
Male Swiss Albino mice [6]; oral 28 days
  exercise performance, energy, and endurance (in words): significant improvements of exercise performance, energy, and endurance
Male Swiss Albino mice [6]; oral once daily 28 days, HED 50 mg paraxanthine, 25 mg L-Theanine
  distance travelled during treadmill exercise: 309.50±6.77 m
[7]; old rats (16-month-old)
  escape latency: 39.00 ± 1.90 s
[7]; old rats
  decrease of escape latency compared to L-Theanine: 12.7%
  decrease of escape latency compared to control: 33.7%
[7]; young rats (8-week-old)
  escape latency: 32.50 ± 1.38 s
[7]; young rats
  decrease of escape latency compared to L-Theanine: 15.2%
  decrease of escape latency compared to control: 40%
[8]; old rats
  BDNF: 842.7 ± 6.26 pg/mL
  increase in BDNF compared to L-Theanine: 6.8%
  increase in BDNF compared to placebo: 18.1%
[8]; young rats
  BDNF: 917 ± 5.21 pg/mL
  increase in BDNF compared to L-Theanine: 5.9%
  increase in BDNF compared to placebo: 22.7%
Acetylcholine (Ach) [9]; old rats
  acetylcholine (Ach) concentration: 59.78±2.61 U/mL
  increase in Ach compared to L-Theanine: 7.0%
  increase in Ach compared to placebo: 23.3%
Acetylcholine (Ach) [9]; young rats
  acetylcholine (Ach) concentration: 66.83±2.38 U/mL
  increase in Ach compared to L-Theanine: 6.4%
  increase in Ach compared to placebo: 23.9%
Dopamine (dopa) [10]; old rats
  dopamine (dopa) concentration: 516.85 ± 4.43 ng/L
  increase in dopa compared to L-Theanine: 9.3%
  increase in dopa compared to placebo: 32.7%
Dopamine (dopa) [10]; young rats
  dopamine (dopa) concentration: 580.22 ± 5.33 ng/L
  increase in dopa compared to L-Theanine: 9.8%
  increase in dopa compared to placebo: 23.7%
Glutathione (GSH) [11]; old rats
  glutathione (GSH) level: 25.57 ± 0.80 µg/mL
  increase in GSH compared to L-Theanine: 7.1%
  increase in GSH compared to placebo: 62.1%
Glutathione (GSH) [11]; young rats
  glutathione (GSH) level: 32.57 ± 0.84 µg/mL
  increase in GSH compared to L-Theanine: 2.6%
  increase in GSH compared to placebo: 64.1%
Male Swiss Albino mice [12]; compared to alpha-GPC alone
  increase of distance travelled compared to alpha-GPC: 4.4%
Male Swiss Albino mice [12]; compared to control (placebo)
  increase of distance travelled compared to control: 81%
Male Swiss Albino mice [12]; compared to theobromine
  increase of distance travelled compared to theobromine: 6.3%
Male Swiss Albino mice [12]; compared to theophylline
  increase of distance travelled compared to theophylline: 9.9%
Male Swiss Albino mice [12]; oral 28 days
  exercise performance, energy, and endurance (in words): significant improvements of exercise performance, energy, and endurance

## Cn1cnc2c1c(=O)[nH]c(=O)n2C [theobromine, reference compound]
[1]; old rats (16-month-old)
  escape latency: 42.33 ± 1.63 s
[1]; young rats (8-week-old)
  escape latency: 37.67 ± 2.07 s
Acetylcholine (Ach) [3]; old rats
  acetylcholine (Ach) concentration: 56.67±1.32 U/mL
Acetylcholine (Ach) [3]; young rats
  acetylcholine (Ach) concentration: 64.28±0.88 U/mL
Dopamine (dopa) [4]; old rats
  dopamine (dopa) concentration: 503.03 ± 9.29 ng/L
Dopamine (dopa) [4]; young rats
  dopamine (dopa) concentration: 552.73 ± 10.42 ng/L
Glutathione (GSH) [5]; old rats
  glutathione (GSH) level: 24.53 ± 0.54 µg/mL
Glutathione (GSH) [5]; young rats
  glutathione (GSH) level: 31.28 ± 0.78 µg/mL
